ChEMBL document CHEMBL5303573, “Mapping human microbiome drug metabolism by gut bacteria and their genes” (Nature, 2019)

Key:
[1] = The drug is tested on Bifidobacterium longum subsp. Infantis strain: CCUG52486 for biotransformation. The drug concentrations were measured before and after a 12-h incubation by liquid-chromatography-coupled mass spectrometry (LC–MS); conditions: 2 µM
[2] = The drug is tested on Collinsella intestinalis strain: DSM13280 for biotransformation. The drug concentrations were measured before and after a 12-h incubation by liquid-chromatography-coupled mass spectrometry (LC–MS); conditions: 2 µM
[3] = The drug is tested on Bacteroides cellulosilyticus strain: DSM14838 for biotransformation. The drug concentrations were measured before and after a 12-h incubation by liquid-chromatography-coupled mass spectrometry (LC–MS); conditions: 2 µM
[4] = The drug is tested on Bacteroides fragilis strain: ATCC43859 for biotransformation. The drug concentrations were measured before and after a 12-h incubation by liquid-chromatography-coupled mass spectrometry (LC–MS); conditions: 2 µM
[5] = The drug is tested on Blautia hansenii strain: DSM20583 for biotransformation. The drug concentrations were measured before and after a 12-h incubation by liquid-chromatography-coupled mass spectrometry (LC–MS); conditions: 2 µM
[6] = The drug is tested on Clostridium asparagiforme strain: DSM15981 for biotransformation. The drug concentrations were measured before and after a 12-h incubation by liquid-chromatography-coupled mass spectrometry (LC–MS); assay type: ADME; design: dose 2 uM, timepoint 0 vs 12 hours; conditions: enterocloster asparagiformis, 2 µM
[7] = The drug is tested on Clostridium sp. strain: fecal isolate for biotransformation. The drug concentrations were measured before and after a 12-h incubation by liquid-chromatography-coupled mass spectrometry (LC–MS); conditions: 2 µM
[8] = The drug is tested on Enterococcus faecalis strain: V583 for biotransformation. The drug concentrations were measured before and after a 12-h incubation by liquid-chromatography-coupled mass spectrometry (LC–MS); conditions: 2 µM
[9] = The drug is tested on Eubacterium hallii strain: DSM3353 for biotransformation. The drug concentrations were measured before and after a 12-h incubation by liquid-chromatography-coupled mass spectrometry (LC–MS); conditions: anaerobutyricum hallii, 2 µM
[10] = The drug is tested on Ruminococcus gnavus strain: ATCC29149 for biotransformation. The drug concentrations were measured before and after a 12-h incubation by liquid-chromatography-coupled mass spectrometry (LC–MS); conditions: mediterraneibacter gnavus, 2 µM
[11] = The drug is tested on Providencia rettgeri strain: DSM1131 for biotransformation. The drug concentrations were measured before and after a 12-h incubation by liquid-chromatography-coupled mass spectrometry (LC–MS); assay type: ADME; design: dose 2 uM, timepoint 0 vs 12 hours; conditions: 2 µM
[12] = The drug is tested on Providencia stuartii strain: ATCC25827 for biotransformation. The drug concentrations were measured before and after a 12-h incubation by liquid-chromatography-coupled mass spectrometry (LC–MS); conditions: 2 µM
[13] = bacteroides eggerthii, 12 h, 2 µM
Description: The drug is tested on Bacteroides eggerthii strain: DSM20697 for biotransformation. The drug concentrations were measured before and after a 12-h incubation by liquid-chromatography-coupled mass spectrometry (LC–MS)

[14] = bacteroides stercoris, 12 h, 2 µM
Description: The drug is tested on Bacteroides stercoris strain: ATCC43183 for biotransformation. The drug concentrations were measured before and after a 12-h incubation by liquid-chromatography-coupled mass spectrometry (LC–MS)

[15] = bacteroides thetaiotaomicron, 12 h, 2 µM
Description: The drug is tested on Bacteroides thetaiotaomicron strain: VPI-5482 for biotransformation. The drug concentrations were measured before and after a 12-h incubation by liquid-chromatography-coupled mass spectrometry (LC–MS)

[16] = segatella copri, 12 h, 2 µM
Description: The drug is tested on Prevotella copri strain: DSM18205 for biotransformation. The drug concentrations were measured before and after a 12-h incubation by liquid-chromatography-coupled mass spectrometry (LC–MS)

[17] = enterocloster bolteae, 12 h, 2 µM
Description: The drug is tested on Clostridium bolteae strain: ATCCBAA-613 for biotransformation. The drug concentrations were measured before and after a 12-h incubation by liquid-chromatography-coupled mass spectrometry (LC–MS)

[18] = limosilactobacillus reuteri cf48-3a, 12 h, 2 µM
Description: The drug is tested on Lactobacillus reuteri CF48-3A strain: BEI HM-102 for biotransformation. The drug concentrations were measured before and after a 12-h incubation by liquid-chromatography-coupled mass spectrometry (LC–MS)

[19] = The drug is tested on Bacteroides fragilis strain: HMW615 for biotransformation. The drug concentrations were measured before and after a 12-h incubation by liquid-chromatography-coupled mass spectrometry (LC–MS); conditions: 2 µM

SMILES	Bacterial Biotransformation [1]	Bacterial Biotransformation [2]	Bacterial Biotransformation [3]	Bacterial Biotransformation [4]	Bacterial Biotransformation [5]	Bacterial Biotransformation [6]	Bacterial Biotransformation [7]	Bacterial Biotransformation [8]	Bacterial Biotransformation [9]	Bacterial Biotransformation [10]	Bacterial Biotransformation [11]	Bacterial Biotransformation [12]	Bacterial Biotransformation [13]	Bacterial Biotransformation [14]	Bacterial Biotransformation [15]	Bacterial Biotransformation [16]	Bacterial Biotransformation [17]	Bacterial Biotransformation [18]	Bacterial Biotransformation [19]
CSc1ccc2c(c1)C(N1CCN(C)CC1)Cc1ccccc1S2.O=C(O)/C=C\C(=O)O (stereo not drawn)	Compound NOT metabolized	Compound NOT metabolized	Compound NOT metabolized	Compound NOT metabolized	Compound NOT metabolized	Compound NOT metabolized	Compound NOT metabolized	Compound NOT metabolized	Compound NOT metabolized	Compound NOT metabolized	Compound NOT metabolized	Compound NOT metabolized	Compound NOT metabolized	Compound NOT metabolized	Compound NOT metabolized	Compound metabolized	Compound NOT metabolized	Compound NOT metabolized	–
NC12CC3CC(CC(C3)C1)C2 [AMANTADINE]	Compound NOT metabolized	Compound NOT metabolized	Compound metabolized	–	Compound NOT metabolized	Compound NOT metabolized	Compound NOT metabolized	Compound NOT metabolized	Compound NOT metabolized	Compound NOT metabolized	–	Compound NOT metabolized	Compound NOT metabolized	Compound NOT metabolized	Compound NOT metabolized	Compound NOT metabolized	Compound NOT metabolized	Compound NOT metabolized	Compound NOT metabolized
CCC1(c2ccc(N)cc2)CCC(=O)NC1=O (stereo not drawn) [AMINOGLUTETHIMIDE]	Compound NOT metabolized	Compound NOT metabolized	Compound NOT metabolized	–	Compound NOT metabolized	Compound NOT metabolized	–	Compound NOT metabolized	Compound NOT metabolized	Compound NOT metabolized	Compound NOT metabolized	Compound NOT metabolized	Compound NOT metabolized	Compound NOT metabolized	–	Compound NOT metabolized	Compound NOT metabolized	Compound NOT metabolized	Compound NOT metabolized
CCOC(=O)[C@H](CCc1ccccc1)N[C@H]1CCc2ccccc2N(CC(=O)O)C1=O [BENAZEPRIL]	–	Compound NOT metabolized	Compound NOT metabolized	Compound metabolized	Compound NOT metabolized	Compound metabolized	Compound NOT metabolized	Compound metabolized	Compound NOT metabolized	Compound NOT metabolized	–	Compound NOT metabolized	Compound metabolized	Compound metabolized	Compound metabolized	Compound metabolized	Compound NOT metabolized	Compound NOT metabolized	Compound metabolized
CCc1oc2ccccc2c1C(=O)c1cc(Br)c(O)c(Br)c1 [BENZBROMARONE]	Compound NOT metabolized	–	Compound NOT metabolized	Compound NOT metabolized	Compound NOT metabolized	Compound NOT metabolized	Compound NOT metabolized	Compound NOT metabolized	Compound NOT metabolized	Compound NOT metabolized	Compound NOT metabolized	Compound NOT metabolized	Compound NOT metabolized	Compound NOT metabolized	Compound NOT metabolized	Compound NOT metabolized	–	–	Compound NOT metabolized
CCCC1O[C@@H]2C[C@H]3[C@@H]4CCC5=CC(=O)C=C[C@]5(C)[C@H]4[C@@H](O)C[C@]3(C)[C@]2(C(=O)CO)O1 (stereo partly drawn) [BUDESONIDE]	Compound NOT metabolized	Compound NOT metabolized	Compound NOT metabolized	Compound metabolized	Compound metabolized	Compound metabolized	Compound metabolized	Compound NOT metabolized	Compound NOT metabolized	Compound NOT metabolized	–	–	Compound metabolized	Compound metabolized	Compound metabolized	Compound NOT metabolized	Compound NOT metabolized	Compound NOT metabolized	Compound metabolized
CN(C)CCOC(c1ccc(Cl)cc1)c1ccccn1.O=C(O)/C=C\C(=O)O (stereo not drawn) [CARBINOXAMINE MALEATE]	Compound NOT metabolized	Compound NOT metabolized	Compound NOT metabolized	–	Compound NOT metabolized	Compound NOT metabolized	Compound NOT metabolized	Compound NOT metabolized	Compound NOT metabolized	Compound NOT metabolized	Compound NOT metabolized	Compound NOT metabolized	Compound NOT metabolized	Compound NOT metabolized	Compound NOT metabolized	Compound NOT metabolized	Compound NOT metabolized	–	Compound NOT metabolized
CN/C(=N/CCSCc1nc[nH]c1C)NC#N [CIMETIDINE]	–	Compound NOT metabolized	Compound NOT metabolized	–	Compound NOT metabolized	Compound NOT metabolized	–	Compound NOT metabolized	Compound NOT metabolized	Compound NOT metabolized	Compound NOT metabolized	Compound NOT metabolized	Compound NOT metabolized	Compound NOT metabolized	Compound metabolized	–	Compound NOT metabolized	Compound NOT metabolized	–
Cc1nc2n(c(=O)c1CCN1CCC(c3noc4cc(F)ccc34)CC1)CCCC2 [RISPERIDONE]	Compound NOT metabolized	Compound metabolized	Compound NOT metabolized	Compound metabolized	Compound metabolized	Compound metabolized	Compound metabolized	Compound metabolized	Compound metabolized	Compound metabolized	Compound NOT metabolized	–	–	Compound NOT metabolized	Compound NOT metabolized	Compound NOT metabolized	Compound NOT metabolized	Compound NOT metabolized	–
